According to ChEMBL document CHEMBL5030533, “Mechanistic Investigation of Site-specific DNA Methylating Agents Targeting Breast Cancer Cells” (J Med Chem, 2021):
Calls of active or inactive are those of the source. The rule behind the calls is not given here.

Assays:
[1] = test system: Calf thymus DNA; test: Binding affinity to calf thymus DNA assessed as 3-MeA adduct formation at 100 uM after 24 hrs in presence of netropsin by RP-HPLC analysis relative to control; format: nucleic-acid assay; conditions: Bos taurus
[2] = test system: Calf thymus DNA; test: Binding affinity to calf thymus DNA assessed as 3-MeA adduct formation at 100 uM for 24 hrs in presence of netropsin by RP-HPLC analysis; format: nucleic-acid assay; conditions: Bos taurus
[3] = test system: Calf thymus DNA; test: Binding affinity to calf thymus DNA assessed as 3-MeA adduct formation at 100 uM after 24 hrs by RP-HPLC analysis relative to control; format: nucleic-acid assay; conditions: Bos taurus
[4] = test system: MCF7; test: Cytotoxicity against ER positive human MCF7 cells incubated for 24 hrs in presence of estradiol by MTT assay; format: functional, cell-based; conditions: MCF7, 24 h
[5] = test system: Calf thymus DNA; test: Binding affinity to calf thymus DNA assessed as 3-MeA adduct formation at 25 uM after 24 hrs by RP-HPLC analysis relative to control; format: nucleic-acid assay; conditions: Bos taurus
[6] = test system: MCF7; test: Cytotoxicity against ER positive human MCF7 cells at 100 uM incubated for 24 hrs in presence of estradiol by MTT assay; format: functional, cell-based
[7] = test system: Calf thymus DNA; test: Binding affinity to calf thymus DNA assessed as 3-MeA adduct formation at 50 uM after 24 hrs by RP-HPLC analysis relative to control; format: nucleic-acid assay; conditions: Bos taurus
[8] = test system: Calf thymus DNA; test: Binding affinity to calf thymus DNA assessed as 3-MeA adduct formation at 25 uM after 24 hrs by RP-HPLC analysis; format: nucleic-acid assay; conditions: Bos taurus
[9] = test system: MCF7; test: Cytotoxicity against human MCF7 cells measured after 16 hrs by MTT assay; format: functional, cell-based; conditions: MCF7, 16 h
[10] = test system: Calf thymus DNA; test: Binding affinity to calf thymus DNA assessed as 7-MeG adduct formation at 100 uM after 24 hrs by RP-HPLC analysis; format: nucleic-acid assay; conditions: Bos taurus
[11] = test system: Calf thymus DNA; test: Binding affinity to calf thymus DNA assessed as 7-MeG adduct formation at 50 uM after 24 hrs by RP-HPLC analysis; format: nucleic-acid assay; conditions: Bos taurus
[12] = test system: Calf thymus DNA; test: Binding affinity to calf thymus DNA assessed as 7-MeG adduct formation at 25 uM after 24 hrs by RP-HPLC analysis; format: nucleic-acid assay; conditions: Bos taurus
[13] = test system: Calf thymus DNA; test: Binding affinity to calf thymus DNA assessed as 7-MeG adduct formation at 100 uM after 24 hrs in presence of netropsin by RP-HPLC analysis; format: nucleic-acid assay; conditions: Bos taurus
[14] = test system: MDA-MB-231; test: Cytotoxicity against ER negative human MDA-MB-231 cells incubated for 24 hrs in presence of estradiol by MTT assay; format: functional, cell-based; conditions: MDA-MB-231, 24 h
[15] = test system: Calf thymus DNA; test: Binding affinity to calf thymus DNA assessed as 3-MeA adduct formation at 5000 uM after 24 hrs by RP-HPLC analysis relative to control; format: nucleic-acid assay; conditions: Bos taurus
[16] = test system: Calf thymus DNA; test: Binding affinity to calf thymus DNA assessed as 3-MeA adduct formation at 5000 uM after 24 hrs by RP-HPLC analysis; format: nucleic-acid assay; conditions: Bos taurus
[17] = test system: Calf thymus DNA; test: Binding affinity to calf thymus DNA assessed as 3-MeA adduct formation at 5000 uM after 24 hrs in presence of netropsin by RP-HPLC analysis; format: nucleic-acid assay; conditions: Bos taurus
[18] = test system: Calf thymus DNA; test: Binding affinity to calf thymus DNA assessed as 3-MeA adduct formation at 5000 uM after 24 hrs in presence of netropsin by RP-HPLC analysis relative to control; format: nucleic-acid assay; conditions: Bos taurus
[19] = test system: Calf thymus DNA; test: Binding affinity to calf thymus DNA assessed as 3-MeA adduct formation at 50 uM after 24 hrs by RP-HPLC analysis; format: nucleic-acid assay; conditions: Bos taurus
[20] = test system: Calf thymus DNA; test: Binding affinity to calf thymus DNA assessed as 3-MeA adduct formation at 100 uM after 24 hrs by RP-HPLC analysis; format: nucleic-acid assay; conditions: Bos taurus
[21] = biological target: T1, Estrogen receptor (Homo sapiens) (UniProt P03372); test: Induction of ERalpha nuclear translocation in human MCF7 cells at 15 nM after 5 hrs by immunofluorescence assay; format: cell-based
T1 sequence (whole entry): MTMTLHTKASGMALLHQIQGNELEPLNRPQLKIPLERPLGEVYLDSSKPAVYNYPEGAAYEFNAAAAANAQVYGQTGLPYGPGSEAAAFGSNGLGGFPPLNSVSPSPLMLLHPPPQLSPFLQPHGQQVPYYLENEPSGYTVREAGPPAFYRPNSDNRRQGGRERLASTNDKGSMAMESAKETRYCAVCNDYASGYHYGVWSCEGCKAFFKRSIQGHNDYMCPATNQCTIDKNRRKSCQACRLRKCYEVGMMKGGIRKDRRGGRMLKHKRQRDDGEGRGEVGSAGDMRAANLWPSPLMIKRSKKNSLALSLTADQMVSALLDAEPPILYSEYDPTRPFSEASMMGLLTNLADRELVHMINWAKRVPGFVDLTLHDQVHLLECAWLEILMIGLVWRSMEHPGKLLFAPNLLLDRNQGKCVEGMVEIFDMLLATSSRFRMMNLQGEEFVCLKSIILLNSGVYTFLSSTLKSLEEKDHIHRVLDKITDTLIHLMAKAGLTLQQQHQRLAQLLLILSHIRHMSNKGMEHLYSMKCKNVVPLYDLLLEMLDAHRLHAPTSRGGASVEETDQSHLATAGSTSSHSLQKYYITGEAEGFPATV

[22] = biological target: T1, Estrogen receptor (Homo sapiens); test: Induction of ERalpha nuclear translocation in human MCF7 cells assessed as increase in AGR2 mRNA expression at 0.1 to 5 nM after 24 hrs by RT-qPCR analysis; format: cell-based; conditions: dose 0.1-5 nM
[23] = biological target: T1, Estrogen receptor (Homo sapiens); test: Induction of ERalpha nuclear translocation in human MCF7 cells assessed as increase in LRP2 mRNA expression at 0.1 to 5 nM after 24 hrs by RT-qPCR analysis; format: cell-based; conditions: dose 0.1-5 nM
[24] = biological target: T1, Estrogen receptor (Homo sapiens); test: Induction of ERalpha nuclear translocation in human MCF7 cells assessed as increase in RasGRP1 mRNA expression at 0.1 to 5 nM after 24 hrs by RT-qPCR analysis; format: cell-based; conditions: dose 0.1-5 nM
[25] = biological target: T1, Estrogen receptor (Homo sapiens); test: Induction of ERalpha nuclear translocation in human MCF7 cells assessed as increase in SLFN5 mRNA expression at 0.1 to 5 nM after 24 hrs by RT-qPCR analysis; format: cell-based; conditions: dose 0.1-5 nM
[26] = biological target: T1, Estrogen receptor (Homo sapiens); test: Induction of ERalpha nuclear translocation in human MCF7 cells assessed as increase in TFF1 mRNA expression at 0.1 to 5 nM after 24 hrs by RT-qPCR analysis; format: cell-based; conditions: dose 0.1-5 nM
[27] = biological target: T1, Estrogen receptor (Homo sapiens); test: Induction of ERalpha nuclear translocation in human MCF7 cells assessed as increase in RGNEF mRNA expression at 0.1 to 5 nM after 24 hrs by RT-qPCR analysis; format: cell-based; conditions: dose 0.1-5 nM
[28] = biological target: T2, Estrogen receptor (Homo sapiens, UniProt P03372); test: Binding affinity of ERalpha LBD (unknown origin) incubated for 2 hrs by LanthaScreen TR-FRET assay
T2 sequence (P03372 whole entry): T1 sequence (whole entry)

[29] = test system: Calf thymus DNA; test: Displacement of ethidium bromide from calf thymus DNA assessed as relative binding by measuring molar equivalents by spectrofluorometric assay; format: nucleic-acid assay; conditions: Bos taurus
[30] = biological target: T1, Estrogen receptor (Homo sapiens); test: Induction of ERalpha nuclear translocation in human MCF7 cells assessed as increase in IGFBP4 mRNA expression at 0.1 to 5 nM after 24 hrs by RT-qPCR analysis; format: cell-based; conditions: dose 0.1-5 nM

Row | Structure (SMILES) | Activity [1] | Activity [2] | Activity [3] | Activity [5] | Activity [7] | Activity [8] | EC50 [9] | Activity [10] | Activity [11] | Activity [12] | Activity [13] | Activity [19] | Activity [22] | Activity [23] | Activity [24] | Activity [25] | Activity [26] | Activity [27] | Activity [29] | Activity [30] | also measured
1 | COS(=O)(=O)CCC(=O)Nc1cc(C(=O)Nc2cc(C(=O)NCCC(=O)NCCCCCC[C@@H]3Cc4cc(O)ccc4[C@H]4CC[C@]5(C)[C@@H](O)CC[C@H]5[C@H]34)n(C)c2)n(C)c1 | 95% | 769 µmol | 97% | 99% | 98% | 6520 µmol | 39.4 µM | 495 µmol | 253 µmol | 93 µmol | 409 µmol | – | – | – | – | – | – | – | – | – | EC50 [4]: 50.7 µM; Activity [6]: inactive; EC50 [14]: 160 µM
2 | COS(C)(=O)=O | – | – | – | – | – | – | – | – | – | – | – | – | – | – | – | – | – | – | – | – | Activity [15]: 9%; Activity [16]: 1800 µmol; Activity [17]: 1240 µmol; Activity [18]: 31%
3 | COS(=O)(=O)CCC(=O)Nc1cc(C(=O)Nc2cc(C(=O)NCCCC(=O)NCCCCCC[C@@H]3Cc4cc(O)ccc4[C@H]4CC[C@]5(C)[C@@H](O)CC[C@H]5[C@H]34)n(C)c2)n(C)c1 | 86% | 173 µmol | 79% | 83% | 82% | 699 µmol | 89.5 µM | 318 µmol | 204 µmol | 147 µmol | 420 µmol | 922 µmol | – | – | – | – | – | – | – | – | Activity [20]: 1210 µmol
4 | COS(=O)(=O)CCC(=O)Nc1cc(C(=O)Nc2cc(C(=O)NCC(=O)NCCCCCC[C@@H]3Cc4cc(O)ccc4[C@H]4CC[C@]5(C)[C@@H](O)CC[C@H]5[C@H]34)n(C)c2)n(C)c1 | 91% | 180 µmol | 83% | 89% | 86% | 1620 µmol | 142 µM | 404 µmol | 404 µmol | 194 µmol | 482 µmol | 1760 µmol | – | – | – | – | – | – | – | – | Activity [21]: Active; Activity [20]: 1920 µmol
5 | Cn1cc(NC(=O)c2cc(NC(=O)CCS(C)(=O)=O)cn2C)cc1C(=O)NCCC(=O)NCCCCCC[C@@H]1Cc2cc(O)ccc2[C@H]2CC[C@]3(C)[C@@H](O)CC[C@H]3[C@H]12 | – | – | – | – | – | – | – | – | – | – | – | – | Active | inactive | Active | Active | Active | Active | 2.54 Mequiv | Active | IC50 [28]: 0.00148 µM
6 | Cn1cc(NC(=O)c2cc(NC(=O)CCS(C)(=O)=O)cn2C)cc1C(=O)NCCCC(=O)NCCCCCC[C@@H]1Cc2cc(O)ccc2[C@H]2CC[C@]3(C)[C@@H](O)CC[C@H]3[C@H]12 | – | – | – | – | – | – | 146 µM | – | – | – | – | – | Active | Active | Active | Active | Active | Active | 4.43 Mequiv | Active | –
7 | CCCNC(=O)c1cc(NC(=O)c2cc(NC(=O)CCS(=O)(=O)OC)cn2C)cn1C | 95% | – | 95% | 96% | 95% | 4600 µmol | 85 µM | 774 µmol | 399 µmol | 185 µmol | 714 µmol | 8230 µmol | – | – | – | – | – | – | – | – | Activity [6]: Active
8 | Cn1cc(NC(=O)c2cc(NC(=O)CCS(C)(=O)=O)cn2C)cc1C(=O)NCC(=O)NCCCCCC[C@@H]1Cc2cc(O)ccc2[C@H]2CC[C@]3(C)[C@@H](O)CC[C@H]3[C@H]12 | – | – | – | – | – | – | 122 µM | – | – | – | – | – | Active | inactive | Active | Active | Active | Active | 4.35 Mequiv | Active | IC50 [28]: 0.00099 µM
